Activity calls are given as the source filed them. No cut-off for these calls is given here.
Assays:
RV-1 = assay: Antiproliferative activity against human RV-1 cells assessed as reduction in cell viability at 500 to 2500 nM incubated for 5 days in presence of AZD8055 by CellTiter-Glo assay; format: functional, cell-based; details: dose 500-2500 nM, time 5.0 day
[1] = biological target: Cyclin-dependent kinase 18 (Homo sapiens) (UniProt Q07002); assay: Inhibition of PCTK3 (unknown origin) assessed as remaining activity at 1 uM by Kinome scan method relative to control
Chain of Cyclin-dependent kinase 18 (Homo sapiens) (Q07002 whole entry): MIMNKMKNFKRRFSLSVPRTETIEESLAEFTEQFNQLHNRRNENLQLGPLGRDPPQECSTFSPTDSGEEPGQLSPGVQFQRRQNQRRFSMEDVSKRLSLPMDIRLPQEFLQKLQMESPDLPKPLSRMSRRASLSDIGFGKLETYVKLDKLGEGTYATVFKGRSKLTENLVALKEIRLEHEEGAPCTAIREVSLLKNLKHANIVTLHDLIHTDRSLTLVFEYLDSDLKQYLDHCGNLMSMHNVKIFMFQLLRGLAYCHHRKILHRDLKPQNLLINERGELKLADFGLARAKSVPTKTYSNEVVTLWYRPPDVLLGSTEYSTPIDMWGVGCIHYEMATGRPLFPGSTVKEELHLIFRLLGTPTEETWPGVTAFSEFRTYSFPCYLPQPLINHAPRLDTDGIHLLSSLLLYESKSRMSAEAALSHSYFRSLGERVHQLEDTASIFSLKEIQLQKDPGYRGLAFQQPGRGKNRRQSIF

[2] = Induction of cell cycle arrest in human RV-1 cells assessed as accumulation of cells at S phase at 2.5 uM incubated for 5 days by propidium iodide staining based flow cytometric analysis (reference value: 28.9 %); format: functional; details: time 5 day
[3] = test system: Tyrosine-protein kinase ABL1 (Homo sapiens), P00519 [T315I]; assay: Inhibition of ABL1 T315I mutant (unknown origin) assessed as remaining activity at 1 uM by Kinome scan method relative to control
[4] = biological target: Platelet-derived growth factor receptor beta (Homo sapiens) (UniProt P09619); assay: Inhibition of PDGFRbeta (unknown origin) assessed as remaining activity at 1 uM by Kinome scan method relative to control
Chain of Platelet-derived growth factor receptor beta (Homo sapiens) (P09619 whole entry): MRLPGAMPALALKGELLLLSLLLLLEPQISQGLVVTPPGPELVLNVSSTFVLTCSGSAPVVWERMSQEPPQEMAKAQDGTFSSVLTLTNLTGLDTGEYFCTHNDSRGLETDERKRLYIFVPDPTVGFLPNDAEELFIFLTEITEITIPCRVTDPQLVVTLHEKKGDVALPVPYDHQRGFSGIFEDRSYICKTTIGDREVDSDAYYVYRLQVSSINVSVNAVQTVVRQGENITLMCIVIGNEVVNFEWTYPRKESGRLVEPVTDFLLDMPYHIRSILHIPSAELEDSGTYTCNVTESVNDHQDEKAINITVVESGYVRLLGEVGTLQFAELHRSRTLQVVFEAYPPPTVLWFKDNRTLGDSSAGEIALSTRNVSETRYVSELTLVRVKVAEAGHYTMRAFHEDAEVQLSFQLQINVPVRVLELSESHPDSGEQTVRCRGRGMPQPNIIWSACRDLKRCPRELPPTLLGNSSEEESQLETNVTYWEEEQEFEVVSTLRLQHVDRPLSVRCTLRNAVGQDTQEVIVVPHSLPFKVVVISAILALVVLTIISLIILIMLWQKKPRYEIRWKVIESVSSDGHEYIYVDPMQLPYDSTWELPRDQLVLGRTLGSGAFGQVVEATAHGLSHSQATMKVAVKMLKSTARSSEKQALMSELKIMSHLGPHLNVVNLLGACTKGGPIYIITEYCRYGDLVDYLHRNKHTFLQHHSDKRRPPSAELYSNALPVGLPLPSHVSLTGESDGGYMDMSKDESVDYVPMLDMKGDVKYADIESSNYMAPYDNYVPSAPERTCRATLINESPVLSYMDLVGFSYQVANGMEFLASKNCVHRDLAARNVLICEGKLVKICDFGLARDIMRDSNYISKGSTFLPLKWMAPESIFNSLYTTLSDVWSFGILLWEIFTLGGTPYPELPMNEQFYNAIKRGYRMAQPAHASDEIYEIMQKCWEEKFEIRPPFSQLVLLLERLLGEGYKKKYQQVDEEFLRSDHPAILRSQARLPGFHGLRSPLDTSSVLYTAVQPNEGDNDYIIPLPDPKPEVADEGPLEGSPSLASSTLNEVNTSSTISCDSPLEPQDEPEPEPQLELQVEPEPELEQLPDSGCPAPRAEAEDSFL

[5] = biological target: Serine/threonine-protein kinase mTOR (Homo sapiens) (UniProt P42345); assay: Inhibition of MTOR (unknown origin) assessed as remaining activity at 1 uM by Kinome scan method relative to control
BaF3 = assay: Antiproliferative activity against mouse BaF3 cells expressing TEL-fused BLK assessed growth inhibition incubated for 2 to 5 days by CellTiter-Glo assay; format: functional; details: time 2-5 day
[6] = Down regulation of BMX protein expression in human RV-1 cells expressing wild type BMX assessed protein expression level at 2.5 uM pre incubated for 4 hrs followed by compound wash out and additon of CHX and measured after 16 hrs by immunoblot analysis (reference value: 0.98 to 1.01); format: functional
[7] = biological target: Dual specificity mitogen-activated protein kinase kinase 7 (Homo sapiens) (UniProt O14733); assay: Inhibition of MKK7 (unknown origin) assessed as remaining activity at 1 uM by Kinome scan method relative to control
Chain of Dual specificity mitogen-activated protein kinase kinase 7 (Homo sapiens) (O14733 whole entry): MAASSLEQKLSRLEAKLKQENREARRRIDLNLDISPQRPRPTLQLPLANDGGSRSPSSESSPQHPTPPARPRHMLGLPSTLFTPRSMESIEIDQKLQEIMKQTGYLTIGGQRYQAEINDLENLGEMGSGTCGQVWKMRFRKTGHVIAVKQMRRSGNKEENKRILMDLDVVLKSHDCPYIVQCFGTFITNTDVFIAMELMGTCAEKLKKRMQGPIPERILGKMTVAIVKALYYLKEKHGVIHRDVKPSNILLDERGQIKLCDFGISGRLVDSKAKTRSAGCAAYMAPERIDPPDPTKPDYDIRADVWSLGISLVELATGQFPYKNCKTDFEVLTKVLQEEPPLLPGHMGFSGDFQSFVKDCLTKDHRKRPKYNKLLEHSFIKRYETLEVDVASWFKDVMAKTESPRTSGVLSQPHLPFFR

[8] = biological target: cAMP-dependent protein kinase catalytic subunit alpha (Homo sapiens) (UniProt P17612); assay: Inhibition of PKAC-alpha (unknown origin) assessed as remaining activity at 1 uM by Kinome scan method relative to control
[9] = biological target: Serine/threonine-protein kinase PAK 3 (Homo sapiens) (UniProt O75914); assay: Inhibition of PAK3 (unknown origin) assessed as remaining activity at 1 uM by Kinome scan method relative to control
Chain of Serine/threonine-protein kinase PAK 3 (Homo sapiens) (O75914 whole entry, looked up, the tested form may be a part): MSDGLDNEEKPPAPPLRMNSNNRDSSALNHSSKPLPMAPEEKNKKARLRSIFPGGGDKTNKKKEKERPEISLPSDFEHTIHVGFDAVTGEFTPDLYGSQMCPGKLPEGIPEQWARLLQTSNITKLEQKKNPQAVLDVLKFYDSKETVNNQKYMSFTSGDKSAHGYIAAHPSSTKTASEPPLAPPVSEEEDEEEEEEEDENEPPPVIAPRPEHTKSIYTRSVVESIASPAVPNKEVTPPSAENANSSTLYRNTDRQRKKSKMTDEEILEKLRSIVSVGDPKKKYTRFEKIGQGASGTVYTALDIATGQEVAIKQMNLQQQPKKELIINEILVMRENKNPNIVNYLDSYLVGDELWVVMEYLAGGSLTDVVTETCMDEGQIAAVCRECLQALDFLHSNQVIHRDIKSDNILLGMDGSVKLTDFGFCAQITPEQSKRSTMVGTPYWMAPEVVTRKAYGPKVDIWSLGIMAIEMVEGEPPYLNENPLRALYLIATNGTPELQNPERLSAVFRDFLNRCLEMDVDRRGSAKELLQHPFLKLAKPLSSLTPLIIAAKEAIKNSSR

[10] = biological target: Tyrosine-protein kinase JAK2 (Homo sapiens) (UniProt O60674); assay: Inhibition of JAK2 JH1 domain (unknown origin) assessed as remaining activity at 1 uM by Kinome scan method relative to control
Chain of Tyrosine-protein kinase JAK2 (Homo sapiens) (O60674 whole entry, the tested form may be a part): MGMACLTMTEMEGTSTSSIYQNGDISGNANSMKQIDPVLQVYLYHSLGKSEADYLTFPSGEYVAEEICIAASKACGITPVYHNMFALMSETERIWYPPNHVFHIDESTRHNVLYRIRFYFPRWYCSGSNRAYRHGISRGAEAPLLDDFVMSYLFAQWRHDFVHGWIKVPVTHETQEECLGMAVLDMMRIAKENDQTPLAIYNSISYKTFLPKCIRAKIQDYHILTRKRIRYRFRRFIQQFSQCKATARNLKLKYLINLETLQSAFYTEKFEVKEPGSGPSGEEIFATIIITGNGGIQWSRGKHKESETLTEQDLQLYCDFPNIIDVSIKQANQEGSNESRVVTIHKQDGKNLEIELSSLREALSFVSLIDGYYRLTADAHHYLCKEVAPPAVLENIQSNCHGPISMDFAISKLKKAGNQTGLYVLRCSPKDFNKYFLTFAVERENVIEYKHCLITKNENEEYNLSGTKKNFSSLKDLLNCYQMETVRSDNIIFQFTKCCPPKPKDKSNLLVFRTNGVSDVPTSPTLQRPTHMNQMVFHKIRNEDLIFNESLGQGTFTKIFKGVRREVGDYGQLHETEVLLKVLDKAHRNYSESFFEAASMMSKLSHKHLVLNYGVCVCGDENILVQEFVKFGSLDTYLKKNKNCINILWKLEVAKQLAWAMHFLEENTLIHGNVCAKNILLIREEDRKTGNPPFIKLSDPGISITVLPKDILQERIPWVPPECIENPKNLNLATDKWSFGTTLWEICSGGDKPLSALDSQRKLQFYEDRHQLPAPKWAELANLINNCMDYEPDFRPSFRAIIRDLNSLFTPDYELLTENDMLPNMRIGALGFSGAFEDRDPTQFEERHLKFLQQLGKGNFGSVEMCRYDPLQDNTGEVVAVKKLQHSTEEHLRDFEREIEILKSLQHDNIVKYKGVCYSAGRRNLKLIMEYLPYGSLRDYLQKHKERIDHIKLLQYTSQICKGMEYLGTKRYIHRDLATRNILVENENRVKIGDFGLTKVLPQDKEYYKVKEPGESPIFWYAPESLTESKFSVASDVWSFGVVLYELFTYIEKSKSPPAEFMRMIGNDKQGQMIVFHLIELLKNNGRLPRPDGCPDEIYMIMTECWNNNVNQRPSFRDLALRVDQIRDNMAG

[11] = biological target: Vascular endothelial growth factor receptor 2 (Homo sapiens) (UniProt P35968); assay: Inhibition of VEGFR2 (unknown origin) assessed as remaining activity at 1 uM by Kinome scan method relative to control
Chain of Vascular endothelial growth factor receptor 2 (Homo sapiens) (P35968 whole entry): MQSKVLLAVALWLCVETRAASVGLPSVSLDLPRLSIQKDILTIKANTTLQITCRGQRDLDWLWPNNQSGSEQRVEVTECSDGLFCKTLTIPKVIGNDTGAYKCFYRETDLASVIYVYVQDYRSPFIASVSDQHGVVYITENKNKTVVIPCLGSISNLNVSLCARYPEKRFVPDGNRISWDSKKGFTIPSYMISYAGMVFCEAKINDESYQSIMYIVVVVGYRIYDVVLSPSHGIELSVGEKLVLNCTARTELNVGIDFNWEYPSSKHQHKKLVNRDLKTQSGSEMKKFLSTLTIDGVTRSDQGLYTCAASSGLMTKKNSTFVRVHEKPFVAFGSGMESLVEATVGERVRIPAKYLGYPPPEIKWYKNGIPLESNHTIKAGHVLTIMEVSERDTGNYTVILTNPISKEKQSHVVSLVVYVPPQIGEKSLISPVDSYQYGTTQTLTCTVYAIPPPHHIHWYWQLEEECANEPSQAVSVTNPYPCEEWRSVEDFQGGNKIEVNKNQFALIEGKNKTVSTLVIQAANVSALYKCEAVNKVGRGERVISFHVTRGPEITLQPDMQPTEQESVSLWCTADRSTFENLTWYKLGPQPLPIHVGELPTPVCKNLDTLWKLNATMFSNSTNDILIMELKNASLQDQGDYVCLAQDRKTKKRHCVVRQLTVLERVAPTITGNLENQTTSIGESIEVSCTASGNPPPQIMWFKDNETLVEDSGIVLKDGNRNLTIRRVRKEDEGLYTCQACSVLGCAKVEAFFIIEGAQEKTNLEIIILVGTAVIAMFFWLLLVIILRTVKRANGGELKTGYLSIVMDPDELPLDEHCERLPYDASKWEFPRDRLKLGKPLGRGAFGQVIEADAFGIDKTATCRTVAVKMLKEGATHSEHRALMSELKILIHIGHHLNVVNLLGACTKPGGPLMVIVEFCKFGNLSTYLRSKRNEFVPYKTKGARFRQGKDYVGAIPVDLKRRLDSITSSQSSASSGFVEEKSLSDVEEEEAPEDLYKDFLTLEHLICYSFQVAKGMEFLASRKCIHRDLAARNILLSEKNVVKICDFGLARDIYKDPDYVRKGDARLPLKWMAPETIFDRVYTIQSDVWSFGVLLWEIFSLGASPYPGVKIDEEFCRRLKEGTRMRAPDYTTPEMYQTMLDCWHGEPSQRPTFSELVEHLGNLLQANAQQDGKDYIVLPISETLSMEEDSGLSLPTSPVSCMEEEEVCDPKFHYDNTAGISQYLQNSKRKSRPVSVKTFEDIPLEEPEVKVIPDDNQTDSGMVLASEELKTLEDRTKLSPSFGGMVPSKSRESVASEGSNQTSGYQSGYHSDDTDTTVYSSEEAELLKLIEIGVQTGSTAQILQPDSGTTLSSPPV

For C=CC(=O)Nc1cc(-n2c(=O)ccc3cnc4ccc(-c5ccc(NS(C)(=O)=O)cc5)cc4c32)ccc1C, the Activity (RV-1) was “Active”, the Activity [1] was 83% and the Activity [2] was 20.6%. The Activity [3] was 87%, the Activity [4] was 76% and the Activity [5] was 45%. It also gave a GI50 (BaF3) of 3.64 µM, an Activity [6] of 0.28 and an Activity [7] of 49%. For the same molecule, the Activity [8] was 83%, the Activity [9] was 92% and the Activity [10] was 86%. For the same molecule, the Activity [11] was 97%.
